Test results: PubChem BioAssay AID2060902 (Molecular Pharmacology Branch, DTP, NCI, 2025)

Test system: 485368-065-R3-J5-PDC spheroids with HUVEC/MSC, viability
Experiment: Anticancer human tumor 485368-065-R3-J5-PDC patient-derived pancreatic carcinoma cell line growth inhibition [RAS]
Details: for IC50: curve of first compound; for viability, T/C: stronger effect = lower value
How it was run: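 Tumour cells grown as complex spheroids with HUVEC endothelial cells and mesenchymal stem cells, treated with RAS pathway inhibitor combinations. Each agent spans half-log steps from near clinical Cmax, or 10 microM where Cmax is unknown.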
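Note: spheroids exposed to agents for seven days before readout.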

SMILES: C=CC(=O)N1CCN(c2nc(OCC3CCCN3C)nc3c(F)c(-c4nc(N)cc(C)c4C(F)(F)F)c(Cl)cc23)C(C)C1 (configuration not stated) + CCn1c(-c2cccnc2C(C)OC)c2c3cc(ccc31)N1CCOC(CC(NC(=O)C(C(C)C)N(C)C(=O)C3(F)CCN(C(=O)C#CC(C)(C)N(C)C)CC3)C(=O)N3CCCC(N3)C(=O)OCC(C)(C)C2)C1
- IC50 (second compound 0.000949 µM): > 1 µM
- IC50 (second compound 0.003 µM): > 1 µM
- IC50 (second compound 0.00949 µM): > 1 µM
- IC50 (second compound 0.03 µM): > 1 µM
- IC50 (second compound 0.0949 µM): > 1 µM
- IC50 (second compound 0.3 µM): > 1 µM
- viability, T/C (second compound 0.000949 µM, first compound 0.00316 µM): 113%
- viability, T/C (second compound 0.000949 µM, first compound 0.01 µM): 96%
- viability, T/C (second compound 0.000949 µM, first compound 0.0316 µM): 102%
- viability, T/C (second compound 0.000949 µM, first compound 0.1 µM): 99.8%
- viability, T/C (second compound 0.000949 µM, first compound 0.316 µM): 105%
- viability, T/C (second compound 0.000949 µM, first compound 1 µM): 97.5%
- viability, T/C (second compound 0.003 µM, first compound 0.00316 µM): 110%
- viability, T/C (second compound 0.003 µM, first compound 0.01 µM): 99.5%
- viability, T/C (second compound 0.003 µM, first compound 0.0316 µM): 107%
- viability, T/C (second compound 0.003 µM, first compound 0.1 µM): 101%
- viability, T/C (second compound 0.003 µM, first compound 0.316 µM): 119%
- viability, T/C (second compound 0.003 µM, first compound 1 µM): 107%
- viability, T/C (second compound 0.00949 µM, first compound 0.00316 µM): 95.9%
- viability, T/C (second compound 0.00949 µM, first compound 0.01 µM): 104%
- viability, T/C (second compound 0.00949 µM, first compound 0.0316 µM): 97.1%
- viability, T/C (second compound 0.00949 µM, first compound 0.1 µM): 103%
- viability, T/C (second compound 0.00949 µM, first compound 0.316 µM): 110%
- viability, T/C (second compound 0.00949 µM, first compound 1 µM): 104%
- viability, T/C (second compound 0.03 µM, first compound 0.00316 µM): 87.6%
- viability, T/C (second compound 0.03 µM, first compound 0.01 µM): 99.6%
- viability, T/C (second compound 0.03 µM, first compound 0.0316 µM): 97.3%
- viability, T/C (second compound 0.03 µM, first compound 0.1 µM): 106%
- viability, T/C (second compound 0.03 µM, first compound 0.316 µM): 107%
- viability, T/C (second compound 0.03 µM, first compound 1 µM): 108%
- viability, T/C (second compound 0.0949 µM, first compound 0.00316 µM): 99.4%
- viability, T/C (second compound 0.0949 µM, first compound 0.01 µM): 99.8%
- viability, T/C (second compound 0.0949 µM, first compound 0.0316 µM): 108%
- viability, T/C (second compound 0.0949 µM, first compound 0.1 µM): 93.9%
- viability, T/C (second compound 0.0949 µM, first compound 0.316 µM): 115%
- viability, T/C (second compound 0.0949 µM, first compound 1 µM): 93.1%
- viability, T/C (second compound 0.3 µM, first compound 0.00316 µM): 96.2%
- viability, T/C (second compound 0.3 µM, first compound 0.01 µM): 104%
- viability, T/C (second compound 0.3 µM, first compound 0.0316 µM): 95.6%
- viability, T/C (second compound 0.3 µM, first compound 0.1 µM): 106%
- viability, T/C (second compound 0.3 µM, first compound 0.316 µM): 105%
- viability, T/C (second compound 0.3 µM, first compound 1 µM): 94.8%
